Laboratory results published in patent publication US20210267983A1, “COMBINATIONS OF PPAR AGONISTS AND P38 KINASE INHIBITORS FOR PREVENTING OR TREATING FIBROTIC DISEASES” (KINARUS AG, priority 2018, published 2021).

How the values were obtained:
[1] = test system: bleomycin-induced pulmonary fibrosis; experiment: 21-day model of bleomycin-induced pulmonary fibrosis in mice; type: in vivo; details: day 21, oral gavage QD, 25 mg/kg pioglitazone, 100 mg/kg pamapimod, alone or in combination, p<0.05, t test; for lung weights normalized to body weights: vs. group 2 (bleomycin + vehicle); for fibrosis, group mean fibrotic index (modified Ashcroft score): vs. group 2 (fibrotic index 4.8)
Description: Male C57BL/6 mice, six to seven weeks of age, were used for this study. Animals were weighed one day prior to study initiation and 60 animals were randomized into 6 groups (N=10/group) such that mean body weights were similar for the different groups. Food and water were provided ad libitum, with a 12-hour light/dark cycle.
Treatment in groups 2-6 was initiated one day prior to bleomycin administration and continued though to the study end on day 21. On day -1, animals were dosed via oral gavage with vehicle control (0.5% methylcellulose; group 1 and group 2), pioglitazone at 25 mg/kg/dose (group 3), pamapimod at 100 mg/kg/dose (group 4), pioglitazone at 25 mg/kg/dose and pamapimod at 100 mg/kg/dose (group 5), pirfenidone at 100mg/kg/dose (group 6) and continued for 21 days. Pioglitazone and pamapimod were dosed once daily (QD) and pirfenidone was dosed twice daily (BID). On day 0, all mice in groups 2-6 received a single instillation of bleomycin to induce pulmonary fibrosis. Animals in group 1 (dosed with vehicle from days-1 to 21) were not instilled with bleomycin, but instead received a single dose of saline, and were considered sham negative control mice. Final drug treatments were administered 2-4 hours prior to study termination on day 21.
Body weights, absolute lung weights, and lung weights normalized to body weights were measured for all mice on day 21 after bleomycin instillation, and were compared to bleomycin-instilled vehicle treated control mice. The post-caval lobes from the right lung were collected and snap frozen. The remaining lungs were fixed in 10% NBF and underwent histopathology analysis and evaluated for eseverity of fibrosis using a modified Ashcroft score.
Vehicle (0.5% methylcellulose) and compounds were prepared weekly and stored at room temperature in the dark. All mice were dosed starting on day-1 until study termination on day 21 with a volume of 200 μl of vehicle or test compounds QD by oral gavage or 100 μl of pirfenidone BID by oral gavage. For groups receiving both pirfenidone and test compounds, pirfenidone was dosed 100 μl BID and test compounds were delivered in a total volume of 100 μl QD. […]
The lung samples were processed and embedded with all lobes from each mouse in one paraffin block. […] A modified Ashcroft score (Hubner et al., 2008) was recorded for each field. The fibrotic index was calculated as the sum of the modified Ashcroft field scores divided by the number of fields examined. […]
Endpoint data on day 21 is shown as the average Ashcroft score per experimental group, with standard error of the mean (SEM). Statistical differences (defined as p<0.05) between groups were analyzed using t-tests in Prism version 7.0 software (GraphPad, La Jolla, Calif.). […]

[2] = test system: cytokines and chemokines of the interleukin, TNF, C-C and C-X-C motif families; details: for adjusted significance (p) value, C-C Motif Chemokine Ligand 2 (Ccl2) / adjusted significance (p) value, C-C Motif Chemokine Ligand 3 (Ccl3) / adjusted significance (p) value, C-C Motif Chemokine Ligand 4 (Ccl4) / adjusted significance (p) value, C-C Motif Chemokine Ligand 7 (Ccl7) / adjusted significance (p) value, C-C Motif Chemokine Ligand 8 (Ccl8) / adjusted significance (p) value, C-C Motif Chemokine Ligand 12 (Ccl12) / adjusted significance (p) value, C-C Motif Chemokine Ligand 24 (Ccl24) / adjusted significance (p) value, C-X-C Motif Chemokine Ligand 3 (Cxcl3) / adjusted significance (p) value, C-X-C Motif Chemokine Ligand 5 (Cxcl5) / adjusted significance (p) value, C-X-C Motif Chemokine Ligand 10 (Cxcl10) / adjusted significance (p) value, Interleukin 6 (IL6) / adjusted significance (p) value, Interleukin 11 (IL11) / adjusted significance (p) value, Interleukin 12B (IL12b) / adjusted significance (p) value, Interleukin 18 Receptor 1 (IL18r1) / adjusted significance (p) value, TNF Receptor Superfamily Member 10b (Tnfrsf10b) / adjusted significance (p) value, TNF Receptor Superfamily Member 11b (Tnfrsf11b) / adjusted significance (p) value, TNF Superfamily Member 9 (Tnfsf9) / adjusted significance (p) value, TNF Superfamily Member 18 (Tnfsf18) / adjusted significance (p) value, Interleukin 36 Gamma (IL1f9) / adjusted significance (p) value, TNF Superfamily Member 15 (Tnfsf15): lung expression vs bleomycin alone group; for adjusted significance (p) value, C-C Motif Chemokine Ligand 2 (Ccl2) / adjusted significance (p) value, C-C Motif Chemokine Ligand 3 (Ccl3) / adjusted significance (p) value, C-C Motif Chemokine Ligand 4 (Ccl4) / adjusted significance (p) value, C-C Motif Chemokine Ligand 7 (Ccl7) / adjusted significance (p) value, C-C Motif Chemokine Ligand 8 (Ccl8) / adjusted significance (p) value, C-C Motif Chemokine Ligand 12 (Ccl12) / adjusted significance (p) value, C-C Motif Chemokine Ligand 24 (Ccl24) / adjusted significance (p) value, C-X-C Motif Chemokine Ligand 3 (Cxcl3) / adjusted significance (p) value, C-X-C Motif Chemokine Ligand 5 (Cxcl5) / adjusted significance (p) value, C-X-C Motif Chemokine Ligand 10 (Cxcl10) / adjusted significance (p) value, Interleukin 6 (IL6) / adjusted significance (p) value, Interleukin 11 (IL11) / adjusted significance (p) value, Interleukin 12B (IL12b) / adjusted significance (p) value, Interleukin 18 Receptor 1 (IL18r1) / adjusted significance (p) value, TNF Receptor Superfamily Member 10b (Tnfrsf10b) / adjusted significance (p) value, TNF Receptor Superfamily Member 11b (Tnfrsf11b) / adjusted significance (p) value, TNF Superfamily Member 9 (Tnfsf9) / adjusted significance (p) value, TNF Superfamily Member 18 (Tnfsf18): Direction: downregulated; for adjusted significance (p) value, Interleukin 36 Gamma (IL1f9) / adjusted significance (p) value, TNF Superfamily Member 15 (Tnfsf15): Direction: upregulated; for regulation of expression of members of the interleukin/interleukin receptor, TNF/TNF receptor, C-C and C-X-C motif chemokine families: lung, vs bleomycin alone disease group, significant = adjusted p value <0.10
Description: Global gene expression changes were determined by Illumina Next Generation RNA sequencing in lung samples from the animal study described in Example 1. RNA was extracted from the post caval lobe that had been snap frozen at the termination of the study. For this analysis, 8 samples from each of treatment groups 1-6 (total 48 samples) were analysed. Briefly, total RNA was extracted for next generation sequencing using standard methods, then Illumina TruSeq RNA libraries including poly(A) enrichment were prepared. Sequencing was performed on an Illumina NextSeq 500, v2, high output, 1×75 bp reads with 30 Mio packages. Demultiplexing and trimming of Illumina adaptor residuals was performed on the raw data. Mapping of data reads was made using the reference mouse genome mm10. For bioinformatics analysis, the average expression level and standard deviations were determined for each gene for the 8 replicates per treatment group. Pairwise comparisons between groups were then performed to identify differentially expressed genes. Absolute p-values and adjusted p-values, to correct for multiplicity of testing, were calculated for each pairwise analysis.

[3] = cited from earlier work; for reduction of the rate of decline in lung function: patients with IPF; for adverse events / side effects: treatment of IPF

SMILES	lung weights normalized to body weights [1]	fibrosis, group mean fibrotic index (modified Ashcroft score) [1]	adjusted significance (p) value, C-C Motif Chemokine Ligand 2 (Ccl2) [2]	adjusted significance (p) value, C-C Motif Chemokine Ligand 3 (Ccl3) [2]	adjusted significance (p) value, C-C Motif Chemokine Ligand 4 (Ccl4) [2]	adjusted significance (p) value, C-C Motif Chemokine Ligand 7 (Ccl7) [2]	adjusted significance (p) value, C-C Motif Chemokine Ligand 8 (Ccl8) [2]	adjusted significance (p) value, C-C Motif Chemokine Ligand 12 (Ccl12) [2]	adjusted significance (p) value, C-C Motif Chemokine Ligand 24 (Ccl24) [2]	adjusted significance (p) value, C-X-C Motif Chemokine Ligand 3 (Cxcl3) [2]	adjusted significance (p) value, C-X-C Motif Chemokine Ligand 5 (Cxcl5) [2]	adjusted significance (p) value, C-X-C Motif Chemokine Ligand 10 (Cxcl10) [2]	adjusted significance (p) value, Interleukin 6 (IL6) [2]	adjusted significance (p) value, Interleukin 11 (IL11) [2]	adjusted significance (p) value, Interleukin 12B (IL12b) [2]	adjusted significance (p) value, Interleukin 18 Receptor 1 (IL18r1) [2]	adjusted significance (p) value, TNF Receptor Superfamily Member 10b (Tnfrsf10b) [2]	adjusted significance (p) value, TNF Receptor Superfamily Member 11b (Tnfrsf11b) [2]	adjusted significance (p) value, TNF Superfamily Member 9 (Tnfsf9) [2]	adjusted significance (p) value, TNF Superfamily Member 18 (Tnfsf18) [2]	also measured
Cn1c(=O)c(Oc2ccc(F)cc2F)cc2cnc(NC(CCO)CCO)nc21 [Pamapimod, 6-(2,4-Difluorophenoxy)-2-[3-hydroxy-1-(2-hydroxyethyl)-propylamino]-8-methyl-8H-pyrido[2,3-d]pyrimidin-7-one]	Substantially lower normalized lung weights	Substantially less fibrosis	NS (NS = adjusted p value > 0.10)	NS (NS = adjusted p value > 0.10)	0.042	NS (NS = adjusted p value > 0.10)	NS (NS = adjusted p value > 0.10)	NS (NS = adjusted p value > 0.10)	0.032	NS (NS = adjusted p value > 0.10)	NS (NS = adjusted p value > 0.10)	NS (NS = adjusted p value > 0.10)	NS (NS = adjusted p value > 0.10)	NS (NS = adjusted p value > 0.10)	0.023	NS (NS = adjusted p value > 0.10)	NS (NS = adjusted p value > 0.10)	NS (NS = adjusted p value > 0.10)	NS (NS = adjusted p value > 0.10)	NS (NS = adjusted p value > 0.10)	adjusted significance (p) value, Interleukin 36 Gamma (IL1f9) [2]: NS (NS = adjusted p value > 0.10); adjusted significance (p) value, TNF Superfamily Member 15 (Tnfsf15) [2]: 0.0079; regulation of expression of members of the interleukin/interleukin receptor, TNF/TNF receptor, C-C and C-X-C motif chemokine families [2]: Neither pioglitazone or pamapimod single treatments significantly regulated expression
CCc1ccc(CCOc2ccc(CC3SC(=O)NC3=O)cc2)nc1 (centres unmarked) [Pioglitazone]	Substantially lower normalized lung weights	Substantially less fibrosis	NS (NS = adjusted p value > 0.10)	NS (NS = adjusted p value > 0.10)	NS (NS = adjusted p value > 0.10)	NS (NS = adjusted p value > 0.10)	NS (NS = adjusted p value > 0.10)	NS (NS = adjusted p value > 0.10)	NS (NS = adjusted p value > 0.10)	NS (NS = adjusted p value > 0.10)	NS (NS = adjusted p value > 0.10)	NS (NS = adjusted p value > 0.10)	NS (NS = adjusted p value > 0.10)	NS (NS = adjusted p value > 0.10)	NS (NS = adjusted p value > 0.10)	NS (NS = adjusted p value > 0.10)	NS (NS = adjusted p value > 0.10)	NS (NS = adjusted p value > 0.10)	NS (NS = adjusted p value > 0.10)	NS (NS = adjusted p value > 0.10)	adjusted significance (p) value, Interleukin 36 Gamma (IL1f9) [2]: NS (NS = adjusted p value > 0.10); adjusted significance (p) value, TNF Superfamily Member 15 (Tnfsf15) [2]: NS (NS = adjusted p value > 0.10); regulation of expression of members of the interleukin/interleukin receptor, TNF/TNF receptor, C-C and C-X-C motif chemokine families [2]: Neither pioglitazone or pamapimod single treatments significantly regulated expression
COC(=O)c1ccc2c(c1)NC(=O)/C2=C(\Nc1ccc(N(C)C(=O)CN2CCN(C)CC2)cc1)c1ccccc1 [nintedanib, Nintedanib]	–	–	–	–	–	–	–	–	–	–	–	–	–	–	–	–	–	–	–	–	reduction of the rate of decline in lung function [3]: approximately 50%; adverse events / side effects [3]: significant systemic adverse events
Cc1ccc(=O)n(-c2ccccc2)c1 [pirfenidone, Pirfenidone]	–	–	–	–	–	–	–	–	–	–	–	–	–	–	–	–	–	–	–	–	reduction of the rate of decline in lung function [3]: approximately 50%; adverse events / side effects [3]: significant side effects
